Data reported in US7132258B1, “Nucleic acid encoding vitamin D receptor related polypeptide” (University of Massachusetts, priority 1998, dated 2006).
“Also recorded” adds a separate entry of the source.

Test system: RAC3 message
Test: Northern blot analysis of RAC3 expression in HL-60 cells
Assay type: cell-based, human
Protocol: The expression of RAC3 was examined with Northern blot analysis using standard methods. A single message of about 7.5 kb was detected in human HL60 cells as well as in mouse embryonic tissues. […] Thus, a positive feedback regulatory network may operate in which RAC3 binding to RA-RAR complex activates transcription which, in turn, increases transcription of RAC3.
Cells were treated with different concentration of RA (0, 10, 100, 1000 nM) for a period of 12 hours. In the control group, cells were treated with equal volume of solvent (80% EtOH plus 20% DMSO). Total RNAs were isolated using an RNA isolation kit (RNAzol) and separated on a 1% agarose gel with 2.2 M formaldehyde and blotted onto nylon filters. Filters were hybridized with random-primed ^32P-labeled DNA probes specific for RAC3, Tw2, and SRC1 in hybridization buffer (50% formamide, SX SSPE [1×SSPE is 0.18 M NaCl, 10 mM NaPO4, and 1 mM EDTA at pH 7.7], 2× Denhardt solution, 0.1% SDS, 0.1 mg of sheared herring sperm DNA per ml) at 42° C. overnight. […]
The expression patterns of RAC3 in different human tissues and cancer cells were examined and compared with that of SRC-1 and TIF2. […] Total RNA (20 μg) of HL-60 cells treated with indicated concentrations of atRA for 12 hours or with 1 μM tRA plus 10 μM cycloheximide (CHX) were analyzed for RAC3 message by Northem blot analysis. […]

| Compound | expression of RAC3 (HL60 cells treated with atRA) | effect on stimulation of RAC3 expression by atRA (HL60 cells, addition of cycloheximide) |
| --- | --- | --- |
| CC1=C(/C=C/C(C)=C/C=C/C(C)=C/C(=O)O)C(C)(C)CCC1 [atRA, all-trans retinoic acid] | up-regulated; also recorded: significantly enhances |  |
| C[C@@H]1C[C@@H]([C@H](O)CC2CC(=O)NC(=O)C2)C(=O)[C@@H](C)C1 [cycloheximide] |  | does not have an effect |
